Source: BindingDB's records for doi:10.1016/s0006-2952(96)00656-9 (Institute of Parasitology of Mcgill University, 1997)

Biological target: ATP-dependent translocase ABCB1 (Homo sapiens, UniProt P08183)
Test: TP_TRANSPORTER: binding in plasma membranes from CEM/VLB1.0 cells

ATP-dependent translocase ABCB1, sequence (P08183 whole entry): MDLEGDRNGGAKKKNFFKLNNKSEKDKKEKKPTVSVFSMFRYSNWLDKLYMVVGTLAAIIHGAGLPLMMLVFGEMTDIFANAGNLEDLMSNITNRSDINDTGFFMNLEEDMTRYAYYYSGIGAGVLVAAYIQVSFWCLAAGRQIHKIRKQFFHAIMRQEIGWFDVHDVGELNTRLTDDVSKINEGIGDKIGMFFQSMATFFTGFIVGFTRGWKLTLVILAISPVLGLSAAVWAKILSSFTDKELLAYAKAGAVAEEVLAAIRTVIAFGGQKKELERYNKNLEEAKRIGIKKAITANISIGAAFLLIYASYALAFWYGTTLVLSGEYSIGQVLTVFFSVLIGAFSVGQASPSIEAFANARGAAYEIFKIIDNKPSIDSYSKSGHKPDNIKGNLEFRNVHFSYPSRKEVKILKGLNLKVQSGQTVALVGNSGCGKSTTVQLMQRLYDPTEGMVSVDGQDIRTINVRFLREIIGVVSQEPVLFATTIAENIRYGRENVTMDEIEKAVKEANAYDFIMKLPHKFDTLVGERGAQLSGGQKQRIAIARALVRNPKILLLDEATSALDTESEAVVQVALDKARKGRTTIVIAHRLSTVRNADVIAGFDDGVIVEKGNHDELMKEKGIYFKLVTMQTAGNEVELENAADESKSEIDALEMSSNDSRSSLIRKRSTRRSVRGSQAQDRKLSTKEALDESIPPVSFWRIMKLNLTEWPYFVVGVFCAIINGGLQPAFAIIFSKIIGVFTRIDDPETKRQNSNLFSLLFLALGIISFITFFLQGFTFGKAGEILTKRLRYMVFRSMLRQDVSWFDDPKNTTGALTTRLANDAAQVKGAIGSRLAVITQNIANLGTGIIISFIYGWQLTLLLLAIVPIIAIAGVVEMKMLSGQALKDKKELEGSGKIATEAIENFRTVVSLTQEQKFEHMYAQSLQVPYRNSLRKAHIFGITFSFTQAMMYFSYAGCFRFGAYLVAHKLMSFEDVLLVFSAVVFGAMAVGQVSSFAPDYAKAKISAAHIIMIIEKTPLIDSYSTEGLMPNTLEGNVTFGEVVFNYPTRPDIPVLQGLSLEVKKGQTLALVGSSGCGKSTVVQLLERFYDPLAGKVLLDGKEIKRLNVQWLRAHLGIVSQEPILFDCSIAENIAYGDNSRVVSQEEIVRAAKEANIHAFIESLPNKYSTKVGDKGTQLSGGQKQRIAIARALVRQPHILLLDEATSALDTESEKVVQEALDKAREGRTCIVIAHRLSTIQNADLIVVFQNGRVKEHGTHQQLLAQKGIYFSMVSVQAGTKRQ

Q: With `CC[C@H](C)[C@H]1O[C@]2(CC[C@@H]1C)C[C@@H]1C[C@@H](C/C=C(\C)[C@@H](O[C@H]3C[C@H](OC)[C@@H](O[C@H]4C[C@H](OC)[C@@H](O)[C@H](C)O4)[C@H](C)O3)[C@@H](C)/C=C/C=C3\CO[C@@H]4[C@H](O)C(C)=C[C@@H](C(=O)O1)[C@]34O)O2` [ABAMECTIN] as the molecule, how does the Kd read?
A: 11 nM
